According to US6407227B1, “Process for the crystallization of lactitol” (Xyrofin Oy, priority 1997, dated 2002):

What was measured:
[1] = Solubility Test 1: equilibrium solubility of lactitol crystals in water; type: physicochemical
Protocol: The determination of the solubility and stability of lactitol crystals in water was made as follows:
The lactitol, which was used in the tests, was high grade lactitol monohydrate Lactitol MC (batch 21769) manufactured by Xyrofin OY, Finland according to EP Patent 0456636. This monohydrate was also used as seed crystals. When lactitol dihydrate was studied at 45° C. and 55 ° C., lactitol dihydrate produced at the applicant's research laboratory Dec. 20, 1994 (crystallization No. 3) was used both for solution and as seed crystals. […] The water, which was used, was distilled water.
At 35° C. the supersaturation was 10 g/100 g. […] The solutions were made by dissolving the monohydrate into water at a temperature above the solubility temperature. The solutions which were used at 65° C. and 75° C. were made by evaporating with a vacuum rotating flask evaporator. The concentrations were determined by refractometric indexes (RI). At the temperatures of 5° C., 10° C. and 15° C. the solutions were made in a 2-liter jacketed vessel. The other solutions were made in 200 ml or 250 ml measurement bottles.
When the lactitol had dissolved, the solution was cooled to the test temperature. The solution was seeded with softly crushed monohydrate crystals (2 tests with dihydrate crystals). In the measurement bottles the solutions were stirred with a magnetic stirrer and in the jacketed vessel with a motor driven mixer.
The crystallization of lactitol and the equilibration of the solution was monitored by measuring the refractometric index (RI) of the mother liquid. Before taking a sample, the crystals were allowed settle on the bottom of the vessel, so that the measurement of the RI would be as exact as possible. […] Thus, the RI of the mother liquid was measured from a suspension of crystals and solution. At the end point of the measurement the waiting time was so long that the mother liquid was clearly separated and after that the RI of the mother liquid was measured. The RIs were measured below 55° C. with an Index Instruments GPR-11-37 refractometer and above 55° C. with a Zeiβ refractometer, both of which were calibrated.
The equilibration of the solution was generally monitored for 7 . . . 14 days, but only for 3 days, when dihydrate was used as seed crystals. […] 150° C. and reading accuracy of 0.2° C. The accuracy of this thermometer was checked against a calibrated thermometer.
After the crystal suspension had reached equilibrium, the crystals were separated by centrifuging 15 min 5000 rpm using a thick cloth. One part of the crystals was dried at 60° C. in a drying cabinet over a night. The water contents of both undried and dried crystals were analyzed by the Karl Fischer method or by a coulometric Karl Fischer method. Furthermore, melting behaviors were analyzed.
The final solubilities at the studied temperatures are shown in Tables 2 and 3 in addition to the crystal forms. The crystal form was concluded from the water contents of the undried crystals and from the melting ranges. The water contents are shown in Tables 4 and 5 and melting behaviors in Table 6.

[2] = Linear curve fittings of the solubility points and stability areas from intersections of solubility curves; type: physicochemical; settings: for solubility line s as function of temperature t (linear fitting): t in ° C., s = weight of lactitol/(weight of lactitol+weight of water)×100%, between 100 and 0 ° C.
Source text: The solubility data of Table 2 was combined with some earlier solubility measurement data. The curve fittings of the solubility points were made as linear fittings, when % by weight is used as a concentration unit. […] The fittings were made with the aid of the spread sheet program Excel 5.0^R. The solubility equations of the different hydrate forms are shown in Equations (I) to (IV): [formula]
The fitting of the trihydrate cannot be considered absolutely exact because only three measurement points were used for fitting: one exact point, one uncertain point and one calculatory point.
The solubility points and the curve fittings are shown in a graph in FIG. 1. […] From the intersections of solubility curves it is possible to conclude the stability areas of the different lactitol forms.

In the case of OC[C@@H](O)[C@@H](O[C@@H]1O[C@H](CO)[C@H](O)[C@H](O)[C@H]1O)[C@H](O)[C@@H](O)CO [dihydrate, lactitol dihydrate], the Solubility ([1]; 10.2 ° C., lactitol monohydrate used as seed crystals) is reported as 45.7 g/100 g, the Solubility ([1]; 15.0 ° C., lactitol monohydrate used as seed crystals) is reported as 48.8 g/100 g and the Solubility ([1]; 25.6 ° C., lactitol monohydrate used as seed crystals) is reported as 56.3 g/100 g. For the same compound, the Solubility ([1]; 35.0 ° C., lactitol monohydrate used as seed crystals) was 61.7 g/100 g, the Solubility ([1]; 45.0 ° C., lactitol dihydrate used as seed crystals) was 69.1 g/100 g and the “solubility line s as function of temperature t (linear fitting)” value (from here on “solubility line s as function”) ([2]; dihydrate) was 39.7+0.6332t.
For OC[C@@H](O)[C@@H](O[C@@H]1O[C@H](CO)[C@H](O)[C@H](O)[C@H]1O)[C@H](O)[C@@H](O)CO [monohydrate, lactitol monohydrate], the Solubility ([1]; 54.7 ° C., lactitol dihydrate used as seed crystals) was 73.4 g/100 g, the Solubility ([1]; 55.0 ° C., lactitol monohydrate used as seed crystals) was 75.2 g/100 g and the Solubility ([1]; 65.0 ° C., lactitol monohydrate used as seed crystals) was 79.6 g/100 g. The “solubility line s as function” value ([2]; monohydrate) was 50.2+0.4346t.
With OC[C@@H](O)[C@@H](O[C@@H]1O[C@H](CO)[C@H](O)[C@H](O)[C@H]1O)[C@H](O)[C@@H](O)CO [trihydrate, lactitol trihydrate] the Solubility ([1]; 5.1 ° C., lactitol monohydrate used as seed crystals) was 42.3 g/100 g, the “stability area (temperature)” value ([2]; in water, from the intersections of solubility curves, trihydrate) was under 12 °C and the “solubility line s as function” value ([2]; trihydrate) was 33.4+1.1482t.
